Measurements reported in patent US8273767B2, “Bicyclic-substituted amines as histamine-3 receptor ligands” (Abbott Laboratories, priority 2002, dated 2012).
Structures can show the parent of a compound that is named as a salt.

Row | Structure (SMILES) | melting point
1 | COc1ccc(-c2ccc3nc(CCN4CCC[C@H]4C)ccc3c2)cn1 (as salt: tartrate) [Example 108, 6-(6-Methoxy-pyridin-3-yl)-2-[2(R)-(2-methyl-pyrrolidin-1-yl)-ethyl]-quinoline] | 132 to 134 °C
2 | C[C@@H]1CCCN1CCc1ccc2cc(-c3ccncc3)ccc2n1 (as salt: hydrochloride) [Example 107, 2-[2-(2R-Methyl-pyrrolidin-1-yl)-ethyl]-6-pyridin-4-yl-quinoline] | 145 to 147 °C
3 | C[C@@H]1CCCN1CCc1ccc2cc(-c3ccc(N(C)C)cc3)ccc2n1 (as salt: tartrate) [Example 115, Dimethyl-(4-{2-[2-(2(R)-methyl-pyrrolidin-1-yl)-ethyl]-quinolin-6-yl}-phenyl)-amine] | 155 to 156 °C
4 | C[C@@H]1CCCN1CCc1ccc2cc(-c3cccc(C#N)c3)ccc2c1 [Example 7, 3-(6-{2-[(2R)-2-methyl-1-pyrrolidinyl]ethyl}-2-naphthyl)benzonitrile] | 228.5 to 231.6 °C
5 | CC(=O)c1cccc(-c2ccc3nc(CCN4CCC[C@H]4C)ccc3c2)c1 (as salt: hydrochloride) [Example 45, 1-[3-(2-{2-[(2R)-2-methyl-1-pyrrolidinyl]ethyl}-6-quinolinyl)phenyl]ethanone] | 174 to 175 °C
6 | COc1ccc(-c2ccc3nc(CCN4CCC[C@H]4C)ccc3c2)cc1 (as salt: hydrochloride) [Example 46, 6-(4-methoxyphenyl)-2-{2-[(2R)-2-methyl-1-pyrrolidinyl]ethyl}quinoline] | 165 °C (dec.)
7 | C[C@@H]1CCCN1CCc1ccc2cc(-c3cncnc3)ccc2n1 (as salt: hydrochloride) [Example 113, 2-[2-(2(R)-Methyl-pyrrolidin-1-yl)-ethyl]-6-pyrimidin-5-yl-quinoline] | 160 to 162 °C
8 | C[C@@H]1CCCN1CCc1ccc2cc(C#N)ccc2c1 (as salt: hydrochloride) [Example 5, 6-{2-[(2R)-2-methyl-1-pyrrolidinyl]ethyl}-2-naphthonitrile] | 187.4 to 188.6 °C
9 | C[C@@H]1CCCN1CCc1ccc2cc(-c3ccc(C#N)cc3)ccc2c1 (as salt: tartrate) [Example 1, 4-(6-{2-[(2R)-2-methyl-1-pyrrolidinyl]ethyl}-2-naphthyl)benzonitrile] | 157.4 to 158.1 °C
10 | Cc1ccc(-c2ccc3nc(CCN4CCC[C@H]4C)ccc3c2)c(C)n1 (as salt: hydrochloride) [Example 118, 6-(2,6-Dimethyl-pyridin-3-yl)-2-[2-(2(R)-methyl-pyrrolidin-1-yl)-ethyl]-quinoline] | 176 to 177 °C
11 | Cc1noc(C)c1-c1ccc2nc(CCN3CCC[C@H]3C)ccc2c1 (as salt: hydrochloride) [Example 120, 6-(3,5-Dimethyl-isoxazol-4-yl)-2-[2-(2(R)-methyl-pyrrolidin-1-yl)-ethyl]-quinoline] | 174 to 175 °C
12 | C[C@@H]1CCCN1Cc1ccc2cc(-c3ccc(C#N)cc3)ccc2c1 (as salt: hydrochloride) [Example 6, 4-(6-{[(2R)-2-methyl-1-pyrrolidinyl]methyl}-2-naphthyl)benzonitrile] | 212.6 to 213.6 °C
13 | C[C@@H]1CCCN1CCc1ccc2cc(Br)ccc2c1 (as salt: HCl) [Example 2, (2R)-1-[2-(6-bromo-2-naphthyl)ethyl]-2-methylpyrrolidine] | 247.3 to 250.7 °C
14 | C[C@@H]1CCCN1CCc1ccc2cc(-c3ccc(C#N)cc3)ccc2n1 (as salt: tartrate) [Example 42, 4-(2-{2-[(2R)-2-methyl-1-pyrrolidinyl]ethyl}-6-quinolinyl)benzonitrile] | 164 °C
15 | CC(=O)c1ccc(-c2ccc3nc(CCN4CCC[C@H]4C)ccc3c2)cc1 (as salt: tartrate) [Example 116, 1-(4-{2-[2-(2(R)-Methyl-pyrrolidin-1-yl)-ethyl]-quinolin-6-yl}-phenyl)-ethanone] | 152 to 154 °C
16 | C[C@@H]1CCCN1CCc1ccc2cc(-c3ccc(C(F)(F)F)cc3)ccc2n1 (as salt: hydrochloride) [Example 47, 2-{2-[(2R)-2-methyl-1-pyrrolidinyl]ethyl}-6-[4-(trifluoromethyl)phenyl]quinoline] | 143 to 145 °C (dec.)
17 | C[C@@H]1CCCN1CCc1ccc2cc(C(=O)c3cccc(F)c3)ccc2n1 (as salt: hydrochloride) [Example 50, (3-fluorophenyl)(2-{2-[(2R)-2-methyl-1-pyrrolidinyl]ethyl}-6-quinolinyl)methanone] | 162 to 164 °C (dec.)
18 | C[C@@H]1CCCN1CCc1ccc2cc(-c3ccc(Cl)nc3Cl)ccc2n1 (as salt: hydrochloride) [Example 111, 6-(2,6-Dichloro-pyridin-3-yl)-2-[2-(2(R)-methyl-pyrrolidin-1-yl)-ethyl]-quinoline] | 105 to 107 °C
19 | COC(=O)c1ccc(-c2ccc3nc(CCN4CCC[C@H]4C)ccc3c2)cc1 (as salt: hydrochloride) [Example 121, 4-{2-[2-(2(R)-Methyl-pyrrolidin-1-yl)-ethyl]-quinolin-6-yl}-benzoic acid methyl ester] | 172 to 174 °C

Results, then the compound that gave them:

Row | melting point | Structure (SMILES)
20 | 158 to 159 °C | CSc1ccc(-c2ccc3nc(CCN4CCC[C@H]4C)ccc3c2)cc1 (as salt: hydrochloride) [Example 122, 2-[2-(2(R)-Methyl-pyrrolidin-1-yl)-ethyl]-6-(4-methylsulfanyl-phenyl)-quinoline]
21 | 164 to 165 °C | C[C@@H]1CCCN1CCc1ccc2cc(-c3cc(F)cc(F)c3)ccc2n1 (as salt: hydrochloride) [Example 49, 6-(3,5-difluorophenyl)-2-{2-[(2R)-2-methyl-1-pyrrolidinyl]ethyl}quinoline]
22 | 205 to 207 °C | C[C@@H]1CCCN1CCc1ccc2cc(-c3cccnc3)ccc2n1 (as salt: hydrochloride) [Example 51, 2-{2-[(2R)-2-methyl-1-pyrrolidinyl]ethyl}-6-(3-pyridinyl)quinoline]
23 | 172 °C | C[C@@H]1CCCN1CCc1ccc2cc(-c3cccc(C#N)c3)ccc2n1 (as salt: tartrate) [Example 44, 3-(2-{2-[(2R)-2-methyl-1-pyrrolidinyl]ethyl}-6-quinolinyl)benzonitrile]
24 | 167 to 168 °C | C[C@@H]1CCCN1CCc1ccc2cc(-c3ccc(Cl)nc3)ccc2n1 (as salt: tartrate) [Example 110, 6-(6-Chloro-pyridin-3-yl)-2-[2-(2(R)-methyl-pyrrolidin-1-yl)-ethyl]-quinoline]
25 | 162 to 163 °C | C[C@@H]1CCCN1CCc1ccc2cc(-c3ccc(F)nc3)ccc2n1 (as salt: hydrochloride) [Example 123, 6-(6-Fluoro-pyridin-3-yl)-2-[2-(2(R)-methyl-pyrrolidin-1-yl)-ethyl]-quinoline]
26 | 145 °C | C[C@@H]1CCCN1CCc1ccc2cc(-c3ccc(F)cc3)ccc2n1 (as salt: hydrochloride) [Example 43, 6-(4-fluorophenyl)-2-{2-[(2R)-2-methyl-1-pyrrolidinyl]ethyl}quinoline]
27 | 154 to 155 °C | C[C@@H]1CCCN1CCc1ccc2cc(-c3ccc(Cl)cc3)ccc2n1 (as salt: hydrochloride) [Example 117, 6-(4-Chloro-phenyl)-2-[2-(2(R)-methyl-pyrrolidin-1-yl)-ethyl]-quinoline]
28 | 100 to 102 °C | C[C@@H]1CCCN1CCc1ccc2cc(-c3cncc(C#N)c3)ccc2n1 (as salt: tartrate) [Example 124, 5-{2-[2-(2(R)-Methyl-pyrrolidin-1-yl)-ethyl]-quinolin-6-yl}-nicotinonitrile]
29 | 142 to 143 °C | C[C@@H]1CCCN1CCc1ccc2cc(-c3ccc(F)nc3F)ccc2n1 (as salt: tartrate) [Example 109, 6-(2,6-Difluoro-pyridin-3-yl)-2-[2-(2R-methyl-pyrrolidin-1-yl)-ethyl]-quinoline]
